{"source": "paper PMC11783063", "about": "“Design, synthesis, and apoptotic antiproliferative action of new benzimidazole/1,2,3-triazole hybrids as EGFR inhibitors” (Frontiers in Chemistry, 2025)", "key": {"EGFR": {"target": "EGFR (Homo sapiens, UniProt P00533)", "sequence (P00533 669-1210)": "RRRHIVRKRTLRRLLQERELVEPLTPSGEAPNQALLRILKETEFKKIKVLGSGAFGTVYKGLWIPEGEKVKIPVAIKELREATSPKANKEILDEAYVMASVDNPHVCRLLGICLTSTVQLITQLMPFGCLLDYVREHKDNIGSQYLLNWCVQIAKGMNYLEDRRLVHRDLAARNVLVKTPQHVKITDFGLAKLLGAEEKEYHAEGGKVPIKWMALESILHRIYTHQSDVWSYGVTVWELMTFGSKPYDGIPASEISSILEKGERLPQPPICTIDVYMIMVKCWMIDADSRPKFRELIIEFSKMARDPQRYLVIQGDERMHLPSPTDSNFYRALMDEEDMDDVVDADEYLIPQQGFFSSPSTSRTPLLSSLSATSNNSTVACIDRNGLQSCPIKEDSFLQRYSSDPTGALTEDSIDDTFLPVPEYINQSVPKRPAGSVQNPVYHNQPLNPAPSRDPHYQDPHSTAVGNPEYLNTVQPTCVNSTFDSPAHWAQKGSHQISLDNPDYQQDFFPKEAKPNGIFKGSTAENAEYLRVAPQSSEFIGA", "parameters": "method as in Ihmaid et al., 2021", "settings": "ref Ihmaid et al., 2021; read-out: EGFR inhibition IC50; cited from earlier work"}, "Bcl-2": {"system": "Bcl-2", "assay": "Bcl-2 inhibition assay in MCF-7 cells", "format": "cell-based, human", "protocol": "(§1) The current study supplied compounds 6i and 10e to breast (MCF-7) cancer cell lines at their respective IC50 values. This led to a notable elevation of pro-apoptotic Bax expression, with a fold increase of 34 for compound 6i and 36 for compound 10e.\n(§2) Compounds 6i and 10e were assessed for their ability to activate caspase-3, caspase-8, and Bax, as well as to downregulate the anti-apoptotic protein Bcl2 in the MCF-7 breast cancer cell line ([Abdelbaset et al., 2019]). Supplementary Appendix A provides more details.\nMix all the reagents thoroughly without foaming before use. Wash the microwells twice with approximately 300 μL Wash Buffer per well with thorough aspiration of microwell contents between washes. Take caution not to scratch the surface of the microwells. After the last wash, empty the wells and tap microwell strips on an absorbent pad or paper towel to remove excess Wash Buffer. Use the microwell strips immediately after washing or place upside down on a wet absorbent paper for not longer than 15 minutes. […] Add 100 μL of Sample Diluent in duplicate to all standard wells and to the blank wells. Prepare standard (1:2 dilution) in duplicate ranging from 32 ng/mL to 0.5 ng/mL. Add 100 μL of Sample Diluent, in duplicate, to the blank wells. Add 80 μL of Sample Diluent, in duplicate, to the sample wells. Add 20 μL of each Sample, in duplicate, to the designated wells. Add 50 μL of diluted biotin-conjugate to all wells, including the blank wells. Cover with a plate cover and incubate at room temperature, on a microplate shaker at 100 rpm if available, for 2 hours. Remove plate cover and empty the wells. Wash microwell strips 3 times as described in step 2. Add 100 μL of diluted Streptavidin-HRP to all wells, including the blank wells. Cover with a plate cover and incubate at room temperature, on a microplate shaker at 100 rpm if available, for 1 hour. Remove the plate cover and empty the wells. Wash microwell strips 3 times as described in step 2. Proceed to the next step. Pipette 100 μl of mixed TMB Substrate Solution to all wells, including the blanks. Incubate the microwell strips at room temperature (18° to 25°C) for about 15 minutes, if available on a rotator set at 100 rpm. Avoid direct exposure to intense light. The point, at which the substrate reaction is stopped, is often determined by the ELISA reader. Many ELISA readers record absorbance only up to 2.0 O.D. Therefore, the color development within individual microwells must be watched by the person running the assay and the substrate reaction stopped before positive wells are no longer properly detectable. Stop the enzyme reaction by quickly pipetting 100 μL of Stop Solution into each well, including the blank wells. It is important that the Stop Solution is spread quickly and uniformly throughout the microwells to completely inactivate the enzyme. Results must be read immediately after the Stop Solution is added or within one hour if the microwell strips are stored at 2 - 8°C in the dark. Read the absorbance of each microwell on a spectrophotometer using 450 nm as the primary wavelength."}, "caspase-8": {"system": "caspase-8", "assay": "Caspase-8 activation assay in MCF-7 cells", "format": "cell-based, human", "protocol": "(§3) Cells experience apoptosis in reaction to specific signaling cues, resulting in significant modifications. […] They decompose vital cellular components, including nuclear proteins, such as DNA repair enzymes and structural proteins within the cytoskeleton, essential for optimal cellular function.\n(§4) Supplementary Appendix A provides more details.\nThe absorbance of each microwell was read on a spectrophotometer at 450 nm. A standard curve is prepared from 7human Caspase-8 standard dilutions and human Caspase-8 concentration determined."}, "Bax": {"system": "Bax", "assay": "Bax activation assay in MCF-7 cells", "format": "cell-based, human", "protocol": "as §1, §2\nBring all reagents, except the human Bax-α Standard, to room temperature for at least 30 minutes prior to opening. The human Bax-α Standard solution should not be left at room temperature for more than 10 minutes. All standards, controls and samples should be run in duplicate. Refer to the Assay Layout Sheet to determine the number of wells to be used and put any remaining wells with the desiccant back into the pouch and seal the ziploc. Store unused wells at 4 °C. Pipet 100 μL of Assay Buffer into the S0 (0 pg/mL standard) wells. Pipet 100 μL of Standards #1 through #6 into the appropriate wells. Pipet 100 μL of the Samples into the appropriate wells. Tap the plate gently to mix the contents. Seal the plate and incubate at room temperature on a plate shaker for 1 hour at ~500 rpm. Empty the contents of the wells and wash by adding 400 μL of wash solution to every well. Repeat the wash 4 more times for a total of 5 washes. After the final wash, empty or aspirate the wells and firmly tap the plate on a lint free paper towel to remove any remaining wash buffer. Pipet 100 μL of yellow Antibody into each well, except the Blank. Seal the plate and incubate at room temperature on a plate shaker for 1 hour at ~500 rpm. Empty the contents of the wells and wash by adding 400 μL of wash solution to every well. Repeat the wash 4 more times for a total of 5 washes. After the final wash, empty or aspirate the wells and firmly tap the plate on a lint free paper towel to remove any remaining wash buffer. Add 100 μL of blue Conjugate to each well, except the Blank. Seal the plate and incubate at room temperature on a plate shaker for 30 minutes at ~500 rpm. Empty the contents of the wells and wash by adding 400 μL of wash solution to every well. Repeat the wash 4 more times for a total of 5 washes. After the final wash, empty or aspirate the wells and firmly tap the plate on a lint free paper towel to remove any remaining wash buffer. Pipet 100 μL of Substrate Solution into each well. Incubate for 30 minutes at room temperature on a plate shaker at ~500 rpm. Pipet 100 μL Stop Solution to each well. Blank the plate reader against the Blank wells, read the optical density at 450 nm. Calculate the average net Optical Density (OD) bound for each standard and sample by subtracting the average Blank OD from the average OD for each standard and sample. Using linear graph paper, plot the Average Net OD for each standard versus Bax concentration in each standard. Approximate a straight line through the points. The concentration of Bax in the unknowns can be determined by interpolation."}, "caspase-3": {"system": "caspase-3", "assay": "Caspase-3 activation assay in MCF-7 cells", "format": "cell-based, human", "settings": "vs untreated control", "source_text": "as §3, §4\nAllow all reagents to reach room temperature before use. Gently mix all liquid reagents prior to use. Determine the number of 8-well strips needed for the assay. Insert these in the frame(s) for current use. Add 100 μl of the Standard Diluent Buffer to the zero standard wells. Well(s) reserved for chromogen blank should be left empty. Add 100 μl of standards and controls or diluted samples to the appropriate microtiter wells. The sample dilution chosen should be optimized for each experimental system. Tap gently on the side of plate to mix. Cover wells with plate cover and incubate for 2 hours at room temperature. Thoroughly aspirate or decant solution from wells and discard the liquid, Wash wells 4 times. […] Tap gently on the side of the plate to mix. Cover plate with plate cover and incubate for 1 hour at room temperature. Thoroughly aspirate or decant solution from wells and discard the liquid, Wash wells 4 times. Add 100 μl Anti-Rabbit IgG HRP Working Solution to each well except the chromogen blank(s). Prepare the working dilution as described in Preparing IgG HRP. Cover wells with the plate cover and incubate for 30 minutes at room temperature. Thoroughly aspirate or decant solution from wells and discard the liquid. Wash wells 4 times. Add 100 μl of Stabilized Chromogen to each well. The liquid in the wells will begin to turn blue. Incubate for 30 minutes at room temperature and in the dark. The incubation time for chromogen substrate is often determined by the microtiter plate reader used. […] The O.D. values should be monitored, and the substrate reaction stopped before the O.D. of the positive wells exceeds the limits of the instrument. The O.D. values at 450 nm can only be read after the Stop Solution has been added to each well. […] Add 100 μl of Stop Solution to each well. Tap side of plate gently to mix. The solution in the wells should change from blue to yellow. Read the absorbance of each well at 450 nm having blanked the plate reader against a chromogen blank composed of 100 μl each of Stabilized Chromogen and Stop Solution. Read the plate within 2 hours after adding the Stop Solution. Use a curve fitting software to generate the standard curve. […] Read the concentrations for unknown samples and controls from the standard curve. Multiply value(s) obtained for sample(s) by the appropriate dilution factor to correct for the dilution in step 3."}, "[1]": {"system": "leukemia subpanel of 60 human carcinoma cell lines", "parameters": "method as in Youssif et al., 2024", "settings": "NCI five-dose, ref Youssif et al., 2024; cited from earlier work"}}}
{"smiles": "Cc1ccc(NC(=O)Cn2cc(CN3C(=O)c4cc(Cl)c(Cl)cc4C3=O)nn2)cc1F", "note": "[III]", "values": [{"measurement": "IC50", "setting": "EGFR", "result": 79, "unit": "nM"}]}
{"smiles": "CN[C@@H]1C[C@H]2O[C@@](C)([C@@H]1OC)n1c3ccccc3c3c4c(c5c6ccccc6n2c5c31)C(=O)NC4", "note": "[Staurosporine, reference compound]", "values": [{"measurement": "Bcl-2 Conc", "setting": "Bcl-2; compound at its IC50", "result": 1.20, "unit": "ng/mL"}, {"measurement": "Bcl-2 Fold reduction", "setting": "Bcl-2; vs untreated control", "result": 4}, {"measurement": "Caspase-8 Conc", "setting": "caspase-8; compound at its IC50 concentration", "result": "1.50 ± 0.10", "unit": "ng/mL"}, {"measurement": "Caspase-8 Fold change", "setting": "caspase-8; vs untreated control", "result": 17}, {"measurement": "Bax Conc", "setting": "Bax; compound at its IC50", "result": "288 ± 2", "unit": "pg/mL"}, {"measurement": "Bax Fold change", "setting": "Bax; vs untreated control", "result": 32}, {"measurement": "Caspase-3 Fold change", "setting": "caspase-3", "result": 7}]}
{"smiles": "O=C(N/N=C/c1ccc([N+](=O)[O-])cc1)c1ccc2[nH]c(-c3ccc(Cl)cc3)nc2c1", "note": "[I]", "values": [{"measurement": "Selectivity ratio towards the leukemia subpanel at the GI50 level", "setting": "[1]", "result": 5.96}]}
